Measurements: patent publication US20100021918A1, “METHOD FOR ASSAYING ACTION OF ANTITUMOR AGENT USING SPLICING DEFECTS AS INDEX” (Eisai R&D Management Co., Ltd., priority 2007, published 2010)

System: peripheral blood mononuclear cells (PBMC)
Experiment: qPCR of precursor gene (pre-mRNA) expression in PBMC, Table 2
Type: cell-based, human
Conditions: three hours
From the text: Since it is not easy to obtain a cancer tissue clinically, the measurement of the marker in hemocytes readily obtainable in peripheral blood would be more useful. It was then examined whether the marker gene obtained in cancer cells could change in peripheral blood mononuclear cells in a similar manner as observed in the cancer cells. Specifically peripheral blood was taken from three normal individuals (volunteers) and peripheral blood mononuclear cells were purified and treated with (8E,12E,14E)-7-((4-cycloheptylpiperazin-1-yl)carbonyl)oxy-3,6,16,21-tetrahydroxy-6,10,12,16,20-pentamethyl-18,19-epoxytricosa-8,12,14-trien-11-olide for three hours, followed by measurement of change in expression of the precursor gene (pre-mRNA) by qPCR.
Ficoll-Paque PLUS solution (Amersham, 17-1440-02) was slowly added to the blood taken (with heparin added) from healthy individuals to form a layer underneath the blood (15 mL of Ficoll-Paque PLUS solution was added to 25 mL of blood). After the mixture was centrifuged at 1500 rpm for 30 min, the upper part containing platelets was removed and then a layer containing mononuclear cells was transferred to another tube. The cells were suspended in PBS and centrifuged at 1500 rpm for 5 min, followed by removal of the supernatant. After these steps were repeated twice, the PBMC was suspended in RPMI1640 (containing 10% FBS, penicillin, and streptomycin) and the number of the cells was then counted.
PBMC was suspended in RPMI1640 medium (containing 10% FBS, penicillin, and streptomycin) to 5×10^6 cells/ml and 1 ml of the suspension was plated per well of a 24-well plate. Immediately, 111 μl of 10 times-concentrated (8E,12E,14E)-7-((4-cycloheptylpiperazin-1-yl)carbonyl)oxy-3,6,16,21-tetrahydroxy-6,10,12,16,20-pentamethyl-18,19-epoxytricosa-8,12,14-trien-11-olide was added to the well (six wells per each concentration tested). The cells were then cultured in an incubator with 5% carbon dioxide gas at 37° C. Three hours later, the supernatant was collected and centrifuged at 1500 rpm for five minutes. TRI reagent (SIGMA) (1 ml) was added to each well of the plate from which the supernatant was removed to harvest the cells, which was added to the centrifuged pellet to dissolve. RNA was purified in accordance with the protocol of TRI reagent. RNA was further purified using RNeasy (QIAGEN) and, in accordance with the protocol, DNaseI was added to the samples during the procedure. Absorbance at 260 nm was measured to quantify an amount of RNA.
RNA was prepared to 30 ng/μl and cDNA was synthesized using TaqMan Reverse Transcription Reagents (Applied Biosystems). For the expression level of pre-mRNA of ID1, amplification was carried out by using TaqMan Universal PCR Master Mix (Applied Biosystems) with TaqMan Gene Expression Assays (Hs00704053_s1, Applied Biosystems) as a probe. For the expression level of pre-mRNA of DNAJB1, BZW1, NUP54, RIOK3, CDKN1B, STK17B, ADRM1, EIF4A1, FOXK2, GNB2L1, HSPA9B, HSPH1, KLHL18 and VIL2, reagents were prepared in accordance with each protocol by using POWER SYBR GREEN PCR MASTER MIX (Applied Biosystems) and primers with the sequence below (Invitrogen), and the expression level was measured with ABI7900 (Applied Biosystems). 18S rRNA was measured by both the TaqMan and SYBR methods. The expression level of 18S r RNA was measured with Hs99999901_s1 (Applied Biosystems) as primers for TaqMan and with 18S primers included in TaqMan Ribosomal RNA control reagents (4308329: Applied Biosystems) as primers for SYBR. Measured values were corrected using the expression level of 18S rRNA as an internal control. The expression level of each gene was calculated with the expression level in the cells treated without (8E,12E,14E)-7-((4-cycloheptylpiperazin-1-yl)carbonyl)oxy-3,6,16,21-tetrahydroxy-6,10,12,16,20-pentamethyl-18,19-epoxytricosa-8,12,14-trien-11-olide as 1.

CCC(O)C(C)C1OC1CC(C)(O)/C=C/C=C(\C)C1OC(=O)CC(O)CCC(C)(O)C(OC(=O)N2CCN(C3CCCCCC3)CC2)/C=C/C1C (stereo not drawn) [E7107, (8E,12E,14E)-7-((4-cycloheptylpiperazin-1-yl)carbonyl)oxy-3,6,16,21-tetrahydroxy-6,10,12,16,20-pentamethyl-18,19-epoxytricosa-8,12,14-trien-11-olide]
expression level of pre-mRNA of ADRM1 (untreated cells as 1) (E7107 3 nM): 1.8 | expression level of pre-mRNA of BZW1 (untreated cells as 1) (E7107 3 nM): 1.72 | expression level of pre-mRNA of CDKN1B (untreated cells as 1) (E7107 3 nM): 1.27 | expression level of pre-mRNA of DNAJB1 (untreated cells as 1) (E7107 3 nM): 2.25 | expression level of pre-mRNA of EIF4A1 (untreated cells as 1) (E7107 3 nM): 2.17 | expression level of pre-mRNA of FOXK2 (untreated cells as 1) (E7107 3 nM): 2.1 | expression level of pre-mRNA of GNB2L1 (untreated cells as 1) (E7107 3 nM): 2.47 | expression level of pre-mRNA of HSPA9 (untreated cells as 1) (E7107 3 nM): 1.87 | expression level of pre-mRNA of HSPH1 (untreated cells as 1) (E7107 3 nM): 1.26 | expression level of pre-mRNA of ID1 (untreated cells as 1) (E7107 3 nM): 3.31 | expression level of pre-mRNA of KLHL18 (untreated cells as 1) (E7107 3 nM): 2.36 | expression level of pre-mRNA of NUP54 (untreated cells as 1) (E7107 3 nM): 2.31 | expression level of pre-mRNA of RIOK3 (untreated cells as 1) (E7107 3 nM): 2.59 | expression level of pre-mRNA of STK17B (untreated cells as 1) (E7107 3 nM): 1.94 | expression level of pre-mRNA of VIL2 (untreated cells as 1) (E7107 3 nM): 1.27 | expression level of pre-mRNA of ADRM1 (untreated cells as 1) (E7107 10 nM): 2.68 | expression level of pre-mRNA of BZW1 (untreated cells as 1) (E7107 10 nM): 2.34 | expression level of pre-mRNA of CDKN1B (untreated cells as 1) (E7107 10 nM): 2.35 | expression level of pre-mRNA of DNAJB1 (untreated cells as 1) (E7107 10 nM): 4.46 | expression level of pre-mRNA of EIF4A1 (untreated cells as 1) (E7107 10 nM): 3.64 | expression level of pre-mRNA of FOXK2 (untreated cells as 1) (E7107 10 nM): 2.68 | expression level of pre-mRNA of GNB2L1 (untreated cells as 1) (E7107 10 nM): 2.74 | expression level of pre-mRNA of HSPA9 (untreated cells as 1) (E7107 10 nM): 3.45 | expression level of pre-mRNA of HSPH1 (untreated cells as 1) (E7107 10 nM): 1.88 | expression level of pre-mRNA of ID1 (untreated cells as 1) (E7107 10 nM): 6 | expression level of pre-mRNA of KLHL18 (untreated cells as 1) (E7107 10 nM): 2.97 | expression level of pre-mRNA of NUP54 (untreated cells as 1) (E7107 10 nM): 2.46 | expression level of pre-mRNA of RIOK3 (untreated cells as 1) (E7107 10 nM): 3.57 | expression level of pre-mRNA of STK17B (untreated cells as 1) (E7107 10 nM): 3.44 | expression level of pre-mRNA of VIL2 (untreated cells as 1) (E7107 10 nM): 2.87 | expression level of pre-mRNA of ADRM1 (untreated cells as 1) (E7107 30 nM): 2.59 | expression level of pre-mRNA of BZW1 (untreated cells as 1) (E7107 30 nM): 3.26 | expression level of pre-mRNA of CDKN1B (untreated cells as 1) (E7107 30 nM): 4.9 | expression level of pre-mRNA of DNAJB1 (untreated cells as 1) (E7107 30 nM): 7.42 | expression level of pre-mRNA of EIF4A1 (untreated cells as 1) (E7107 30 nM): 4.36 | expression level of pre-mRNA of FOXK2 (untreated cells as 1) (E7107 30 nM): 2.31 | expression level of pre-mRNA of GNB2L1 (untreated cells as 1) (E7107 30 nM): 2.23 | expression level of pre-mRNA of HSPA9 (untreated cells as 1) (E7107 30 nM): 2.33 | expression level of pre-mRNA of HSPH1 (untreated cells as 1) (E7107 30 nM): 2.68 | expression level of pre-mRNA of ID1 (untreated cells as 1) (E7107 30 nM): 10.57 | expression level of pre-mRNA of KLHL18 (untreated cells as 1) (E7107 30 nM): 2.6 | expression level of pre-mRNA of NUP54 (untreated cells as 1) (E7107 30 nM): 1.93 | expression level of pre-mRNA of RIOK3 (untreated cells as 1) (E7107 30 nM): 2.89 | expression level of pre-mRNA of STK17B (untreated cells as 1) (E7107 30 nM): 3.99 | expression level of pre-mRNA of VIL2 (untreated cells as 1) (E7107 30 nM): 4.89
